Laboratory results taken from patent US5384243A, “Method for screening an agent for its ability to prevent cell transformation” (priority 1992, dated 1995).

Tests used:
[1] = tested on: human muscarinic acetylcholine receptors; assay: Focus assay after transfection of NIH/3T3 cells, mACHR genes in general; assay type: cell-based; conditions: atropine 10 μM
Text: (§1) Transfection. […] Mass populations expressing the transfected neogene were selected for their ability to grow in the presence of geneticin (G418) (Gibco). Transformed foci were scored in stained plates of NIH/3T3 2-3 weeks after transfection. Individual G418 colonies or transformed foci were isolated with the aid of cloning cylinders, and maintained in Dulbecco's Modified Eagle Medium containing 10% calf serum.
(§2) DNA Constructs. […] Analysis of Receptor Expression.
(§3) Foci of transformation were scored after 2-3 weeks. The efficiency of transfection was determined by scoring neo resistant colonies in medium containing G418 (0.750 mg/ml). […] Results represent the average of three independent experiments.

m2 mACHR [2] = target: T1, m2 mACHR (Homo sapiens, UniProt P08172)
T1 sequence (P08172 1-466): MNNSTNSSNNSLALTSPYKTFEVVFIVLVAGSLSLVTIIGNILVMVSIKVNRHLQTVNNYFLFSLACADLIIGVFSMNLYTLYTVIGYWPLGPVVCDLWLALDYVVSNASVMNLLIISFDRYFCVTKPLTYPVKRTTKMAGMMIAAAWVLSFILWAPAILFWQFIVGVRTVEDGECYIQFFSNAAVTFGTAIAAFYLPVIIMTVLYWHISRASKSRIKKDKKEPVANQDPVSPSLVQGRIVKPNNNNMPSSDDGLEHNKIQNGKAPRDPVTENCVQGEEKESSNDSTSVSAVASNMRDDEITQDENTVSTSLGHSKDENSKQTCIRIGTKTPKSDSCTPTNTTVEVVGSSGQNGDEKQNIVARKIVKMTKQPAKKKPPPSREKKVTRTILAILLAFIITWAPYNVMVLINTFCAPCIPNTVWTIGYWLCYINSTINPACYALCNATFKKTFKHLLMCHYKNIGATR

NIH/3T3 cells [3] = assay: [3H]NMS binding to membranes of vector (pDS, neo) transfectants
m5 mACHR = target: T2, m5 mACHR (Homo sapiens, UniProt P08912); assay: Focus assay after transfection of NIH/3T3 cells, pDS m5; assay type: cell-based; conditions: for Focus-forming activity: pDS m5
T2 construct: carbachol-dependent focus formation
T2 sequence (P08912 1-532): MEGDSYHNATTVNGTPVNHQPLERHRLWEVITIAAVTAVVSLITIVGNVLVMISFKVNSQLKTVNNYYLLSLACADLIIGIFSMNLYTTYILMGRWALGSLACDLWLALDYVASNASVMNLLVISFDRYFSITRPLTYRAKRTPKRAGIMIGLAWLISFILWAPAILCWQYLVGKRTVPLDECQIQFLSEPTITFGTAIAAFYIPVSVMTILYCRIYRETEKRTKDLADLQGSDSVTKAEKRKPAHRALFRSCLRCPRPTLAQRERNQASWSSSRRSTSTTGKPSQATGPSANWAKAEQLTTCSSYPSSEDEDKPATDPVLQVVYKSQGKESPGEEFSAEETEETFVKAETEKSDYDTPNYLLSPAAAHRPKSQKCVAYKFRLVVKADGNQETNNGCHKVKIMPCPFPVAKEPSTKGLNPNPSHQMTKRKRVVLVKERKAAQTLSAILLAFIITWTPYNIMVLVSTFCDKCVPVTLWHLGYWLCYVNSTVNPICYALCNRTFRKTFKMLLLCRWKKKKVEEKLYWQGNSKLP
Text: as §1, §2, §3

NIH/3T3 cells [4] = assay: Focus assay after transfection of NIH/3T3 cells, pDS vector; assay type: cell-based, murine
Text: as §1, §2, §3

NIH/3T3 cells [5] = assay: PI hydrolysis in neo NIH/3T3 cells; assay type: cell-based, murine; conditions: Mus musculus, NIH3T3, 1 h, binding 0, read-out: PI Hydrolysis Maximal activation
Text: Phosphatidylinositol Hydrolysis.
EC50, half maximal concentration.

m1, m2, m3 or m4 mACHRs = assay: cAMP assay without forskolin; conditions: 1 mM carbachol, 10 min
NIH/3T3 cells [6] = conditions: neo, binding 0
m2 mACHR [7] = target: T1, m2 mACHR; assay: Focus assay after transfection of NIH/3T3 cells, pDS m2; assay type: cell-based; parameters: expressed in transfected cells; host or cells: NIH/3T3 murine fibroblasts (plasmid pDS m2); conditions: for Focus-forming activity: pDS m2
Text: as §1, §2, §3

m4 mACHR [8] = target: T3, m4 mACHR (Homo sapiens, UniProt P08173); assay: Focus assay after transfection of NIH/3T3 cells, pDS m4; assay type: cell-based; parameters: expressed in transfected cells; host or cells: NIH/3T3 murine fibroblasts (plasmid pDS m4); conditions: for Focus-forming activity: pDS m4
T3 sequence (P08173 1-479): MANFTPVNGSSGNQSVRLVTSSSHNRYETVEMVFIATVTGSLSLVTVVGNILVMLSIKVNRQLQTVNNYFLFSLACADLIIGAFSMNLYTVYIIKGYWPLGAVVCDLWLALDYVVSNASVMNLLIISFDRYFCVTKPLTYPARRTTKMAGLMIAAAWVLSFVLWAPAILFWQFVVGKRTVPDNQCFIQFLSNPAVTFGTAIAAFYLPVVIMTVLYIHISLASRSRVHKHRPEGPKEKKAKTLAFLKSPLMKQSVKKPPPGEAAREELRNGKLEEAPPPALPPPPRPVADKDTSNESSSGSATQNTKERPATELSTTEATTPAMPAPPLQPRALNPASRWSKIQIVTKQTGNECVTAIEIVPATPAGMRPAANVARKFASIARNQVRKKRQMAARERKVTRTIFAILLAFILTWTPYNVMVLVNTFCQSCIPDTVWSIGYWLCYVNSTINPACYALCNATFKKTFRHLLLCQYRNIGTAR
Text: as §1, §2, §3

m2 mACHR [9] = target: T1, m2 mACHR; assay: cAMP assay, forskolin-stimulated, m2 clones; assay type: cell-based; parameters: expressed in transfected cells; host or cells: NIH/3T3 murine fibroblasts (plasmid pDS m2); conditions: 1 mM carbachol, m2 (FIG. 4)
m4 mACHR [10] = target: T3, m4 mACHR; assay: cAMP assay, forskolin-stimulated, m4 clones; assay type: cell-based; parameters: expressed in transfected cells; host or cells: NIH/3T3 murine fibroblasts (plasmid pDS m4); conditions: 1 mM carbachol, m4 (FIG. 4)

## CN1[C@@H]2CC[C@H]1C[C@@H](OC(=O)C(CO)c1ccccc1)C2 (stereo partly shown) [atropine]
[1]
  foci of transformation in cells maintained in atropine: No foci of transformation were observed
[1]; data not shown
  carbachol induced focus-formation in presence of atropine: abolished

## C[N+]1(C)C2CC(OC(=O)C(CO)c3ccccc3)CC1C1OC12 (stereo not shown) [[^3 H]NMS, N-methylscopolamine]
m2 mACHR [2]; G418 selected m2 clone (Table 3)
  Binding: 308 fmoles [^3 H]NMS/mg protein
m2 mACHR [2]; mass culture, pDS m2
  Binding [3H]NMS: 90 fmoles [^3 H]NMS/mg protein
NIH/3T3 cells [3]; mass culture, pDS
  Binding [3H]NMS: < 1 fmoles [^3 H]NMS/mg protein
NIH/3T3 cells [3]; neo clone (Table 3)
  Binding: 0 fmoles [^3 H]NMS/mg protein

## C[N+](C)(C)CCOC(N)=O [carbachol]
m5 mACHR; carbachol 10^-4 M
  Focus-forming activity: 47 per pmol DNA
m5 mACHR; carbachol 10^-6 M
  Focus-forming activity: < 5 per pmol DNA
m5 mACHR; m5 transfectants
  foci of transformation in presence of carbachol: foci of transformation readily appeared
NIH/3T3 cells [4]; carbachol 10^-4 M
  Focus-forming activity: < 1 per pmol DNA
NIH/3T3 cells [4]; carbachol 10^-6 M
  Focus-forming activity: < 1 per pmol DNA
NIH/3T3 cells [5]
  Emax: 100%
m1, m2, m3 or m4 mACHRs
  cAMP accumulation without forskolin: did not accumulate detectable cAMP
NIH/3T3 cells [6]
  Transformation Maximal transportation: 0
m2 mACHR [7]; carbachol 10^-4 M
  Focus-forming activity: < 1 per pmol DNA
m2 mACHR [7]; carbachol 10^-6 M
  Focus-forming activity: < 1 per pmol DNA
m2 mACHR [7]; m2 transfected cultures
  foci of transformation in presence of carbachol: not m2 or m4
m4 mACHR [8]; carbachol 10^-4 M
  Focus-forming activity: < 1 per pmol DNA
m4 mACHR [8]; carbachol 10^-6 M
  Focus-forming activity: < 1 per pmol DNA
m4 mACHR [8]; m4 transfected cultures
  foci of transformation in presence of carbachol: not m2 or m4
m2 mACHR [9]
  cAMP levels in forskolin treated cells: decreased
m4 mACHR [10]
  cAMP levels in forskolin treated cells: decreased
